Assay results reported in ChEMBL document CHEMBL2057091, “InCl3-catalysed synthesis of 2-aryl quinazolin-4(3H)-ones and 5-aryl pyrazolo[4,3-d]pyrimidin-7(6H)-ones and their evaluation as potential anticancer agents” (Bioorg Med Chem Lett, 2012).

Columns and labels:
[1] = test system: MDA-MB-231; assay: Antiproliferative activity against human MDA-MB-231 cells by MTT assay; type: functional, cell-based
[2] = test system: COLO 205; assay: Antiproliferative activity against human COLO205 cells by MTT assay; type: functional, cell-based
[3] = test system: K562; assay: Antiproliferative activity against human K562 cells by MTT assay; type: functional, cell-based
[4] = molecular target: T1, NAD-dependent protein deacetylase sirtuin-1 (Homo sapiens) (UniProt Q96EB6); assay: Inhibition of Sirt1 expressed in human U2OS cells assessed as acetylation of p53 at 10 uM; type: cell-based
T1 sequence (whole entry): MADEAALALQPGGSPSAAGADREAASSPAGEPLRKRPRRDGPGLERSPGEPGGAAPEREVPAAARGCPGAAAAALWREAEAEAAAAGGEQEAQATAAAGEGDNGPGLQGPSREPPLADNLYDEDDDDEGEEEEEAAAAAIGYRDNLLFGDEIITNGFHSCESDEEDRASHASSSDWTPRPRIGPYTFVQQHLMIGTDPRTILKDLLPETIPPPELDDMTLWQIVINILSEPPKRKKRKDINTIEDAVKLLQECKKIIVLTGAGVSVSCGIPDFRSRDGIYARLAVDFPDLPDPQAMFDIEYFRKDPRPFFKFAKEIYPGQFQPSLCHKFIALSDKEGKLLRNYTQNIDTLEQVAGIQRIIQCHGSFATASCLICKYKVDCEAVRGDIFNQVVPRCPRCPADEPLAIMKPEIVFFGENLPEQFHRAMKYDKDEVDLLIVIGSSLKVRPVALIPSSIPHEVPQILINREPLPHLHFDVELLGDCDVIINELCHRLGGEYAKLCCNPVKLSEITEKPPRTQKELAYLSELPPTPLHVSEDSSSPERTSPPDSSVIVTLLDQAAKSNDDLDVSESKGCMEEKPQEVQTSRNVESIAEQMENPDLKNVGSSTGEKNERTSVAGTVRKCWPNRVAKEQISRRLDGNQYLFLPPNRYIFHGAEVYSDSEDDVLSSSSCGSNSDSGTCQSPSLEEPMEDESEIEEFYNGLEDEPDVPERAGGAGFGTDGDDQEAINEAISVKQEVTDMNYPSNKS

IC50 ([1]; Homo sapiens, MDA-MB-231)	IC50 ([2]; Homo sapiens, COLO 205)	IC50 ([3]; Homo sapiens, K562)	inhibition [4]	IC50 ([1]; mda-mb-231)	IC50 ([2]; colo 205)	IC50 ([3]; k562)	Compound
46 µM	25 µM	17 µM					CCCc1nn(C)c2c(=O)[nH]c(-c3ccc(Br)cc3)nc12
			79%				Cc1ccc(C(=O)Nc2ccc(S(=O)(=O)O)c3cc(S(=O)(=O)O)cc(S(=O)(=O)O)c23)cc1NC(=O)c1cccc(NC(=O)Nc2cccc(C(=O)Nc3cc(C(=O)Nc4ccc(S(=O)(=O)O)c5cc(S(=O)(=O)O)cc(S(=O)(=O)O)c45)ccc3C)c2)c1
37 µM	23 µM	20 µM		42 µM	12 µM	19 µM	O=c1[nH]c(-c2ccc([N+](=O)[O-])cc2)nc2ccccc12
38 µM	12 µM	24 µM	59%				CCCc1nn(C)c2c(=O)[nH]c(-c3cccc(Br)c3)nc12
25 µM	7 µM	15 µM	63%				CCCc1nn(C)c2c(=O)[nH]c(-c3ccc(O)c(OC(F)F)c3)nc12
40 µM	11 µM	16 µM					CCCc1nn(C)c2c(=O)[nH]c(-c3cccc(Cl)c3)nc12
41 µM	12 µM	18 µM					O=c1[nH]c(-c2cccc(Cl)c2)nc2ccccc12
51 µM	10 µM	15 µM					CCCc1nn(C)c2c(=O)[nH]c(-c3ccc(Cl)cc3)nc12
41 µM	11 µM	21 µM					O=c1[nH]c(-c2ccc(Br)cc2)nc2ccccc12
28 µM	8 µM	24 µM					COc1ccc(-c2nc(O)c3ccccc3n2)cc1
44 µM	10 µM	21 µM	61%				CCCc1nn(C)c2c(=O)[nH]c(-c3cccc([N+](=O)[O-])c3O)nc12
20 µM	10 µM	17 µM	48%				Oc1nc(-c2ccc(F)cc2)nc2ccccc12
44 µM	9 µM	21 µM					CCCc1nn(C)c2c(=O)[nH]c(-c3ccc(OC)cc3)nc12
48 µM	14 µM	19 µM					CCCc1nn(C)c2c(=O)[nH]c(-c3ccc(C)cc3)nc12

Compound	IC50 ([1]; Homo sapiens, MDA-MB-231)	IC50 ([2]; Homo sapiens, COLO 205)	IC50 ([3]; Homo sapiens, K562)	inhibition [4]	IC50 ([1]; mda-mb-231)	IC50 ([2]; colo 205)	IC50 ([3]; k562)
COc1ccc2c(c1)[nH]c1c(C)nccc12 [HARMINE]	32 µM	8 µM	14 µM				
